Measurements reported in patent US9447148B2, “Melanocortin-1 receptor-specific cyclic peptides” (Palatin Technologies, Inc., priority 2009, dated 2016).
Bridge positions count the residues as written; N and C are the ends. Square brackets hold non-standard residues; d marks the D form. Peptide text beside a SMILES is read from it. dPhe(4-Cl) = N[C@H](Cc1ccc(Cl)cc1)C(=O)O; dPhe(4-Me) = Cc1ccc(C[C@@H](N)C(=O)O)cc1; dPhe(2-F) = N[C@H](Cc1ccccc1F)C(=O)O; Nle = CCCC[C@H](N)C(=O)O; Orn = NCCC[C@H](N)C(=O)O; Dab = NCC[C@H](N)C(=O)O

What was measured:
hMCR-1a = hMCR-1a (Homo sapiens (Human), UniProt Q01726); assay: Competitive inhibition binding assay using [I125]-NDP-α-MSH, hMCR-1a; settings: membrane homogenates of HEK-293 cells, human recombinant receptor, averaged, read-out: MC-1 Ki (average)
Chain of hMCR-1a (Q01726 whole entry): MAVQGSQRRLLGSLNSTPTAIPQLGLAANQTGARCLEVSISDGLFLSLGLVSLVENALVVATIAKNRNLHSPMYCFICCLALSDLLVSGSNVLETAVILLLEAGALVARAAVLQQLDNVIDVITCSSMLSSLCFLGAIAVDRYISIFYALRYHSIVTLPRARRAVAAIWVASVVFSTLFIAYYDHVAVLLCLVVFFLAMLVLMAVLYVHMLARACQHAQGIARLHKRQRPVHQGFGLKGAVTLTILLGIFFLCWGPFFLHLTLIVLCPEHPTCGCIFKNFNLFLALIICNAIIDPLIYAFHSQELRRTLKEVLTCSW
Procedure: (§1) A competitive inhibition binding assay was performed using membrane homogenates prepared from HEK-293 cells that express recombinant hMCR-1a or hMCR-4 (in each instance where the h prefix refers to human), or alternatively membrane homogenates from B16-F10 mouse melanoma cells containing endogenous murine MCR-1. In the examples that follow, all MCR-1 and MCR-4 values are for human recombinant receptors, unless otherwise noted. Assays were performed in 96 well polypropylene round-bottom plates (VWR catalog number 12777-030). […] After incubation for 90 minutes at 37° C., the assay mixture was filtered onto GF/B Unifilter plates (Perkin-Elmer catalog number 6005177) and washed with 3 mL of ice-cold buffer per well. Filters were air dried and 35 μL of scintillation cocktail added to each well. Plates were counted in a Microbeta counter for bound radioactivity. […] Each assay was conducted in duplicate and the actual mean values are described, with results less than 0% reported as 0%. Ki values for peptides of the present invention were determined using Graph-Pad Prism® curve-fitting software.
(§2) Peptides of the following structures were synthesized and averaged MCR-1 and MCR-4 Ki values were determined as indicated. […] All results are expressed in nM except for Emax values, which are percentage values. Peptides with the captioned primary sequence were synthesized and purified as described in Section 5 above, with the resulting peptide having the structure depicted.

hMCR-4 = hMCR-4 (Homo sapiens (Human), UniProt P32245); assay: Competitive inhibition binding assay using [I125]-NDP-α-MSH, hMCR-4; settings: membrane homogenates of HEK-293 cells, human recombinant receptor, averaged, read-out: MC-4 Ki (average)
Chain of hMCR-4 (P32245 whole entry): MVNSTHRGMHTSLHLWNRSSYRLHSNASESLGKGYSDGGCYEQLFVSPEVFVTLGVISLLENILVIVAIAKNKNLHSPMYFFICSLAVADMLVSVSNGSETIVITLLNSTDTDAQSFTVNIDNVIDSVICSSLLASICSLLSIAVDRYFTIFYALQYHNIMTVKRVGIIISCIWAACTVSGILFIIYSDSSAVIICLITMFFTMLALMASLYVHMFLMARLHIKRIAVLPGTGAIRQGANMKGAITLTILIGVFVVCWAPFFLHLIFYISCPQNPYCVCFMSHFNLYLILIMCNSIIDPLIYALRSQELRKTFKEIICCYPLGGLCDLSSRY
Procedure: as §1, §2

hMCR-1 = hMCR-1 (Homo sapiens (Human), UniProt Q01726); assay: Assay for agonist activity: intracellular cAMP accumulation in HBL human melanoma cells; assay type: cell-based; settings: for EC50: HBL cells expressing hMCR-1, averaged, read-out: MC-1 EC50 (average; cAMP HBL); for MC-1 Emax (average; cAMP HBL): HBL cells, maximum efficacy compared to reference agonist NDP-α-MSH
Chain of hMCR-1 (Q01726 whole entry): as the sequence (Q01726 whole entry) above
Procedure: Confluent HBL cells that express hMCR-1 or HEK-293 cells that express recombinant hMCR-4 were detached from culture plates by incubation in enzyme-free cell dissociation buffer. Dispersed cells were suspended in Earle's Balanced Salt Solution containing 10 mM HEPES (pH 7.5), 1 mM MgCl2, 1 mM glutamine, 0.5% albumin and 0.3 mM 3-isobutyl-1-methyl-xanthine (IBMX), a phosphodiesterase inhibitor. The cells were plated in 96-well plates at a density of 0.4×10^5 cells per well for HBL cells and 0.5×10^5 cells per well for HEK-293 cells and pre-incubated for 10 minutes. Cells were exposed for 15 minutes at 37° C. to peptides of the present invention dissolved in DMSO (final DMSO concentration of 1%) at a concentration range of 0.05-5000 nM in a total assay volume of 200 μL. […] Data analysis was performed by nonlinear regression analysis with Graph-Pad Prism® software.
as §2

| Compound | Ki (hMCR-1a) | Ki (hMCR-4) | EC50 (hMCR-1) | MC-1 Emax (average; cAMP HBL) (hMCR-1) |
| --- | --- | --- | --- | --- |
| CCCC[C@H](NC(C)=O)C(=O)N[C@H]1CCC(=O)NCC[C@@H](C(=O)N[C@@H](CCCCN)C(N)=O)NC(=O)[C@H](CCCNC(=N)N)NC(=O)[C@@H](Cc2ccccc2)NC(=O)[C@H](Cc2c[nH]cn2)NC1=O [Example 9.39, Ac-Nle-cyclo(Glu-His-D-Phe-Arg-Dab)-Lys-NH2] (Ac-[Nle]EH[dF]R[Dab]K-NH2; lactam 2-6) | 2 nM | 7380 nM | 0.175 nM |  |
| CCCC[C@H](NC(C)=O)C(=O)N[C@H]1CCC(=O)NCC[C@@H](C(N)=O)NC(=O)[C@H](CCCNC(=N)N)NC(=O)[C@@H](Cc2ccccc2F)NC(=O)[C@H](CCCN)NC1=O [Example 9.60, Ac-Nle-cyclo(Glu-Orn-D-Phe(2-F)-Arg-Dab)-NH2] (Ac-[Nle]E[Orn][dPhe(2-F)]R[Dab]-NH2; lactam 2-6) | 18 nM | 10000 nM | 0.8 nM |  |
| CCCC[C@H](NC(C)=O)C(=O)N[C@H]1CCC(=O)NCC[C@@H](C(=O)N[C@@H](Cc2c[nH]c3ccccc23)C(N)=O)NC(=O)[C@H](C)NC(=O)[C@@H](Cc2ccccc2)NC(=O)[C@H](Cc2c[nH]cn2)NC1=O [Example 9.48, Ac-Nle-cyclo(Glu-His-D-Phe-Ala-Dab)-Trp-NH2] (Ac-[Nle]EH[dF]A[Dab]W-NH2; lactam 2-6) |  |  |  | 72% ^ |
| CCCC[C@H](NC(C)=O)C(=O)N[C@H]1CCC(=O)NCC[C@@H](C(N)=O)NC(=O)[C@@H](Cc2ccccc2)NC(=O)[C@H](Cc2c[nH]cn2)NC1=O [Example 9.46, Ac-Nle-cyclo(Glu-His-D-Phe-Dab)-NH2] (Ac-[Nle]EH[dF][Dab]-NH2; lactam 2-5) | 10000 nM | 10000 nM |  |  |
| CCCC[C@H](NC(C)=O)C(=O)N[C@H]1CCC(=O)NCC[C@@H](C(N)=O)NC(=O)[C@H](CCCNC(=N)N)NC(=O)[C@@H](Cc2ccccc2)NC(=O)[C@H](Cc2c[nH]cn2)NC1=O [Example 9.44, Ac-Nle-cyclo(Glu-His-D-Phe-Arg-Dab)-NH2] (Ac-[Nle]EH[dF]R[Dab]-NH2; lactam 2-6) |  |  |  | 85% ^ |
| CCCC[C@H](NC(C)=O)C(=O)N[C@H]1CNC(=O)CCC(=O)NCC[C@@H](C(=O)N[C@@H](Cc2c[nH]c3ccccc23)C(N)=O)NC(=O)[C@H](CCCNC(=N)N)NC(=O)[C@@H](Cc2ccccc2)NC(=O)[C@H](Cc2c[nH]cn2)NC1=O [Example 9.43] | 0.065 nM | 860 nM |  |  |
| CCCC[C@H](NC(C)=O)C(=O)N[C@H]1CCC(=O)NCC[C@@H](C(N)=O)NC(=O)[C@H](C)NC(=O)[C@@H](Cc2ccccc2)NC(=O)[C@H](Cc2c[nH]cn2)NC1=O [Example 9.45, Ac-Nle-cyclo(Glu-His-D-Phe-Ala-Dab)-NH2] (Ac-[Nle]EH[dF]A[Dab]-NH2; lactam 2-6) |  |  |  | 73% |
| N=C(N)NCCC[C@@H]1NC(=O)[C@@H](Cc2ccccc2)NC(=O)[C@H](Cc2c[nH]cn2)NC(=O)[C@@H](NC(=O)CC2CCCC2)CCC(=O)NCC[C@@H](C(=O)N[C@@H](Cc2c[nH]c3ccccc23)C(N)=O)NC1=O [Example 9.21, cyclopentyl acetyl-cyclo(Glu-His-D-Phe-Arg-Dab)-Trp-NH2] | 0.01 nM |  | 0.004 nM |  |
| CCCC[C@H](NC(C)=O)C(=O)N[C@H]1CCC(=O)NCC[C@@H](C(=O)N[C@@H](Cc2c[nH]c3ccccc23)C(N)=O)NC(=O)[C@H](CCCNC(=N)N)NC(=O)[C@@H](Cc2ccccc2)NC(=O)[C@H](CCCNC(=N)N)NC1=O [Example 9.50, Ac-Nle-cyclo(Glu-Arg-D-Phe-Arg-Dab)-Trp-NH2] |  |  |  | 100% ^ |
| N=C(N)NCCC[C@@H]1NC(=O)[C@@H](Cc2ccccc2)NC(=O)[C@H](Cc2c[nH]cn2)NC(=O)[C@@H](NC(=O)C2CC2)CCC(=O)NCC[C@@H](C(=O)N[C@@H](Cc2c[nH]c3ccccc23)C(N)=O)NC1=O [Example 9.19, cyclo-propanoyl-cyclo(Glu-His-D-Phe-Arg-Dab)-Trp-NH2] | 3 nM |  |  |  |
| CCCC[C@H](NC(C)=O)C(=O)N[C@H]1CCC(=O)NCC[C@@H](C(=O)N[C@@H](Cc2c[nH]c3ccccc23)C(N)=O)NC(=O)[C@H](CCCNC(=N)N)NC(=O)[C@@H](Cc2ccccc2)NC(=O)[C@H](Cc2c[nH]cn2)NC1=O [Example 9.31, Ac-Nle-cyclo(Glu-His-D-Phe-Arg-Dab)-Trp-OH] |  | 10000 nM |  | 79% ^ |

Further lines, results first:

| Ki (hMCR-1a) | Ki (hMCR-4) | EC50 (hMCR-1) | MC-1 Emax (average; cAMP HBL) (hMCR-1) | Compound |
| --- | --- | --- | --- | --- |
| 3 nM | 10000 nM |  |  | CCCC[C@H](NC(C)=O)C(=O)N[C@H]1CCC(=O)NCC[C@@H](C(N)=O)NC(=O)[C@H](CCCNC(=N)N)NC(=O)[C@@H](Cc2ccc(C)cc2)NC(=O)[C@H](CCCN)NC1=O [Example 9.63, Ac-Nle-cyclo(Glu-Orn-D-Phe(4-Me)-Arg-Dab)-NH2] (Ac-[Nle]E[Orn][dPhe(4-Me)]R[Dab]-NH2; lactam 2-6) |
| 2 nM | 10000 nM | 0.12 nM |  | CCCC[C@H](NC(C)=O)C(=O)N[C@H]1CCC(=O)NCC[C@@H](C(N)=O)NC(=O)[C@H](CCCNC(=N)N)NC(=O)[C@@H](Cc2ccc(OC)cc2)NC(=O)[C@H](CCCN)NC1=O [Example 9.64, Ac-Nle-cyclo(Glu-Orn-D-Phe(4-OMe)-Arg-Dab)-NH2] (Ac-[Nle]E[Orn][dY](Me)R[Dab]-NH2; lactam 2-6) |
| 2 nM | 1240 nM | 0.1 nM |  | CCCC[C@H](NC(C)=O)C(=O)N[C@H]1CCC(=O)NCC[C@@H](C(N)=O)NC(=O)[C@H](CCCNC(=N)N)NC(=O)[C@@H](Cc2ccc(Cl)cc2)NC(=O)[C@H](CCCN)NC1=O [Example 9.59, Ac-Nle-cyclo(Glu-Orn-D-Phe(4-Cl)-Arg-Dab)-NH2] (Ac-[Nle]E[Orn][dPhe(4-Cl)]R[Dab]-NH2; lactam 2-6) |
| 3 nM | 185 nM |  |  | CCCC[C@H](NC(C)=O)C(=O)N[C@H]1CCC(=O)NCC[C@@H](C(=O)N[C@@H](Cc2c[nH]c3ccccc23)C(N)=O)NC(=O)[C@H](CCCNC(=N)N)NC(=O)[C@@H](Cc2ccccc2)NC(=O)[C@H]2CCCN2C1=O [Example 9.66, Ac-Nle-cyclo(Glu-Pro-D-Phe-Arg-Dab)-Trp-NH2] |
| 4 nM | 3620 nM |  |  | CCCC[C@H](NC(C)=O)C(=O)N[C@H]1CCC(=O)NCC[C@@H](C(N)=O)NC(=O)[C@H](CCCNC(=N)N)NC(=O)[C@@H](Cc2ccccc2)NC(=O)[C@H](CCCN)NC1=O [Example 9.56, Ac-Nle-cyclo(Glu-Orn-D-Phe-Arg-Dab)-NH2] (Ac-[Nle]E[Orn][dF]R[Dab]-NH2; lactam 2-6) |
|  |  |  | 97% ^ | CCCC[C@H](NC(C)=O)C(=O)N[C@H]1CCC(=O)NCC[C@@H](C(=O)N[C@@H](Cc2c[nH]c3ccccc23)C(N)=O)NC(=O)[C@H](CCCNC(=N)N)NC(=O)[C@@H](Cc2ccccc2)NC(=O)[C@H](CCCNC(N)=O)NC1=O [Example 9.51, Ac-Nle-cyclo(Glu-Cit-D-Phe-Arg-Dab)-Trp-NH2] |
|  |  |  | 91% ^ | CCCC[C@H](NC(C)=O)C(=O)N[C@H]1CCC(=O)NCC[C@@H](C(=O)N[C@@H](CCCCN)C(N)=O)NC(=O)[C@H](CCCNC(=N)N)NC(=O)[C@@H](Cc2ccccc2)NC(=O)[C@H](Cc2c[nH]cn2)NC1=O [Example 9.52, Ac-Nle-cyclo(Glu-His-D-Phe-Arg-Dab)-Lys-NH2] (Ac-[Nle]EH[dF]R[Dab]K-NH2; lactam 2-6) |
|  |  |  | 108% ^ | CCCC[C@H](NC(C)=O)C(=O)N[C@H]1CCC(=O)NCC[C@@H](C(=O)N[C@@H](Cc2c[nH]c3ccccc23)C(N)=O)NC(=O)[C@H](CCCNC(=N)N)NC(=O)[C@@H](Cc2ccccc2)NC(=O)[C@H](CCN)NC1=O [Example 9.54, Ac-Nle-cyclo(Glu-Dab-D-Phe-Arg-Dab)-Trp-NH2] |
|  |  |  | 109% ^ | CCCC[C@H](NC(C)=O)C(=O)N[C@H]1CCC(=O)NCC[C@@H](C(=O)N[C@@H](Cc2c[nH]c3ccccc23)C(N)=O)NC(=O)[C@H](CCCNC(=N)N)NC(=O)[C@@H](Cc2ccccc2)NC(=O)[C@H](CCCN)NC1=O [Example 9.55, Ac-Nle-cyclo(Glu-Orn-D-Phe-Arg-Dab)-Trp-NH2] |
|  |  |  | 108% ^ | CCCC[C@H](NC(C)=O)C(=O)N[C@H]1CCC(=O)NCC[C@@H](C(=O)N[C@@H](Cc2c[nH]c3ccccc23)C(N)=O)NC(=O)[C@H](CCCNC(=N)N)NC(=O)[C@@H](Cc2ccccc2)NC(=O)[C@H](CCCCN)NC1=O [Example 9.53, Ac-Nle-cyclo(Glu-Lys-D-Phe-Arg-Dab)-Trp-NH2] |
